Test results as given in paper PMC11990805, “Investigation of Anticancer Peptides Derived from Arca Species Using In Silico Analysis” (Molecules, 2025).
Residues, ends and D or L forms follow the SMILES beside them. No end group written: not given here.

Assay: Hemolysis assay
Assay type: cell-based
Conditions: sheep; 2% (v/v) erythrocyte suspension, 0.05-1 mg/mL, 37 °C 30 min; read-out: hemolysis rate
Method: The hemolytic activity was evaluated using a modified reference method. Briefly, sheep erythrocytes were isolated by centrifugation at 1000× g for 5 min following washing with physiological saline. The washing procedure was repeated until the supernatant became colorless, and the erythrocyte pellet was collected. A 2% (v/v) erythrocyte suspension was prepared in physiological saline. Aliquots (1 mL) of the suspension were incubated with peptide solutions (KW, WQIWYK, […]) at concentrations of 0.05, 0.1, 0.5, and 1 mg/mL. Experimental controls included 0.1% Triton X-100 (positive control) and sterile PBS (negative control). Following incubation at 37 °C for 30 min, samples were centrifuged at 1000× g for 5 min. Hemoglobin release was quantified by measuring the absorbance of 200 μL supernatant at 425 nm using a microplate reader. The hemolysis percentage was calculated as follows:Hemolysis (%) = (As − AN)/(AP − AN) × 100 where As, AN, and AP represent the absorbance values of the sample, negative control, and positive control, respectively.

| Compound | hemolysis at 30 min [%] |
| --- | --- |
| NCCCC[C@H](N)C(=O)N[C@@H](Cc1c[nH]c2ccccc12)C(=O)O [KW] (H-Lys-Trp-OH; N-terminus and C-terminus assumed) | < 5 |
| WQIWYK [WQIWYK] | < 5 |
